Measured values: patent US11542259B2, “Compounds for the treatment of kinase-dependent disorders” (Exelixis, Inc., priority 2018, dated 2023)
pIC50: −log10 of the molar value.

What was measured:
[1] = target: Human Mer (residues R557-E882 with H628Q and R794A) (Homo sapiens (Human), UniProt Q12866); test: Human Mer kinase assay (33P radiometric, KinaseProfiler); assay type: biochemical; conditions: 10 μM ATP
Met = Met (Homo sapiens (Human), UniProt P08581); test: Met autophosphorylation ELISA in PC-3 cells; assay type: cell-based; conditions: cellular, HGF stimulated, read-out: c-Met IC50
Sequence of Met (P08581 25-1390): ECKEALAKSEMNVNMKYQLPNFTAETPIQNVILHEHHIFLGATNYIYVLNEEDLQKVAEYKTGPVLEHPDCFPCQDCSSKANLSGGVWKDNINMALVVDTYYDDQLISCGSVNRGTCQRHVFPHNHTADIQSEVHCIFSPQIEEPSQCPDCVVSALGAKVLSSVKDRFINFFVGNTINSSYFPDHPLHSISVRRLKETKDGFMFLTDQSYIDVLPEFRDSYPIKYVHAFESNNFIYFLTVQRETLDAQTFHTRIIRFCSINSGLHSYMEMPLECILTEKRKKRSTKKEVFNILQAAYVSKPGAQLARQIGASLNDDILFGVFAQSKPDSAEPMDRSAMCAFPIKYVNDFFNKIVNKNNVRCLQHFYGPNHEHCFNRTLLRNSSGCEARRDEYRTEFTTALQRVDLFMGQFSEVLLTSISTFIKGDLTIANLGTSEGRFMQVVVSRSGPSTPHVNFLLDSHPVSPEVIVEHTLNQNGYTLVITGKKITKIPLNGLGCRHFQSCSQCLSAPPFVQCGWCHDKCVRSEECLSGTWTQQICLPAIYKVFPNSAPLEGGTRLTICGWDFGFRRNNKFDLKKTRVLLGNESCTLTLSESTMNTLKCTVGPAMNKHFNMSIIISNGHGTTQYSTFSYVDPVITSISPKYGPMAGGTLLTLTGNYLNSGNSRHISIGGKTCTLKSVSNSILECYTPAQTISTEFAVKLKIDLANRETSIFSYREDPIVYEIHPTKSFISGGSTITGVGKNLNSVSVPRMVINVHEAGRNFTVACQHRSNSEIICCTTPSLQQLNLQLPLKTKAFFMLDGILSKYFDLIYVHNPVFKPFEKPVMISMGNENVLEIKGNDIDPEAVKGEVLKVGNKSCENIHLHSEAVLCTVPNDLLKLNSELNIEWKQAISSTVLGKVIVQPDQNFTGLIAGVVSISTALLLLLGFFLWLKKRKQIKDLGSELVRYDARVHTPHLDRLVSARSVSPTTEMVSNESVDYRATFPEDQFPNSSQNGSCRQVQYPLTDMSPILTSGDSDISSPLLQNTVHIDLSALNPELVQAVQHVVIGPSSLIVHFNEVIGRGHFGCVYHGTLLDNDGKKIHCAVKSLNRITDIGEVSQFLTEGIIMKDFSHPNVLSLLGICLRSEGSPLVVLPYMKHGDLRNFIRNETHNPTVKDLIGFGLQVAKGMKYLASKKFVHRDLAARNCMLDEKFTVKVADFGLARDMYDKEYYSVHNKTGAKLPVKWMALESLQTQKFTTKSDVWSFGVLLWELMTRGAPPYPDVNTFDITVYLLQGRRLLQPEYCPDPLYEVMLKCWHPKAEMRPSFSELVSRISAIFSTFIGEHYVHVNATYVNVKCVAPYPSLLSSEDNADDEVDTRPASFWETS
Procedure, shortened: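 Phospho-Met (panTyr) sandwich ELISA on lysates of PC-3 cells given 100 ng/mL HGF for 10 min after 1 h compound exposure (8-point curve, 0.3% DMSO) following 3 h serum starvation. Normalised to HGF-stimulated DMSO and reference-inhibitor wells; 4-parameter logistic IC50.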

KDR = KDR (Homo sapiens (Human), UniProt P35968); test: KDR autophosphorylation ELISA in HUVEC cells; assay type: cell-based; conditions: cellular, VEGF165 stimulated
Sequence of KDR (P35968 20-1356): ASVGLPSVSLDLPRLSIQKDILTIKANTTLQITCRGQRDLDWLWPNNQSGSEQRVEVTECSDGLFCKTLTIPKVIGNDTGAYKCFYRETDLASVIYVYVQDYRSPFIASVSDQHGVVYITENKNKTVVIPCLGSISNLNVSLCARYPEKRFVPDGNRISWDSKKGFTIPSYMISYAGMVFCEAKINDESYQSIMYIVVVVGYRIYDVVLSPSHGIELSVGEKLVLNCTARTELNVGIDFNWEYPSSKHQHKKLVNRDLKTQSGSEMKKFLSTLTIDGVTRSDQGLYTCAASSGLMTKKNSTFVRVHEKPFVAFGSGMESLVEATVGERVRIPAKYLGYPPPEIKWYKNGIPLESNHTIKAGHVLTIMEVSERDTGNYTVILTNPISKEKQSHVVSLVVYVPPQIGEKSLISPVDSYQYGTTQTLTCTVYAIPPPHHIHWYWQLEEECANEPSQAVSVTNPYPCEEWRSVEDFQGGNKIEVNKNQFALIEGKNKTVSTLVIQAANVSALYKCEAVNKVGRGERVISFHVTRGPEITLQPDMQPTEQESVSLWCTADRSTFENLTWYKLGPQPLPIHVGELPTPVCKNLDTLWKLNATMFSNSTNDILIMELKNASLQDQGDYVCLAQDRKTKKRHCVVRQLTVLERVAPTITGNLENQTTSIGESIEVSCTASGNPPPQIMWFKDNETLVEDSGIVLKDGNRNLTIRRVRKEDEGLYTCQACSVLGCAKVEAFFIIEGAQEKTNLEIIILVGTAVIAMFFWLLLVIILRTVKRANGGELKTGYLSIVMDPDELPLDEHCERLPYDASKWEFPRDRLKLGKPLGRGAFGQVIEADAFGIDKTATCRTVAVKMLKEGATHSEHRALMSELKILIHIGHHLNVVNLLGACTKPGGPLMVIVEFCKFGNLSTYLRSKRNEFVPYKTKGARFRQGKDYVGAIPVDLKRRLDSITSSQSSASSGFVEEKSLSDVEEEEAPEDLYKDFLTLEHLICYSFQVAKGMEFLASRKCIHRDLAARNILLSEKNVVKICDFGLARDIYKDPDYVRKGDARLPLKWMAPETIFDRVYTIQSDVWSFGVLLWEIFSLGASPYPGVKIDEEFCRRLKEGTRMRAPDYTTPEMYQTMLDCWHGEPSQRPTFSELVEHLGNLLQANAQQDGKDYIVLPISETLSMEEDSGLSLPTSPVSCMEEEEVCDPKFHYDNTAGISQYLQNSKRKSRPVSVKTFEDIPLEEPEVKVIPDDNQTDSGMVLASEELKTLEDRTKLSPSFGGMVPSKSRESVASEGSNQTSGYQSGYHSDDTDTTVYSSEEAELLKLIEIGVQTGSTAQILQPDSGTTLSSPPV
Procedure, shortened: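 Compound pretreatment (1 h, 0.3% DMSO) of serum-starved HUVEC preceded a 5 min pulse of 100 ng/mL VEGF165, after which cells were lysed. Phospho-KDR was quantified by ELISA relative to stimulated and unstimulated controls.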

Sequence of Human Mer (residues R557-E882 with H628Q and R794A) (Q12866 557-882, stated change not applied): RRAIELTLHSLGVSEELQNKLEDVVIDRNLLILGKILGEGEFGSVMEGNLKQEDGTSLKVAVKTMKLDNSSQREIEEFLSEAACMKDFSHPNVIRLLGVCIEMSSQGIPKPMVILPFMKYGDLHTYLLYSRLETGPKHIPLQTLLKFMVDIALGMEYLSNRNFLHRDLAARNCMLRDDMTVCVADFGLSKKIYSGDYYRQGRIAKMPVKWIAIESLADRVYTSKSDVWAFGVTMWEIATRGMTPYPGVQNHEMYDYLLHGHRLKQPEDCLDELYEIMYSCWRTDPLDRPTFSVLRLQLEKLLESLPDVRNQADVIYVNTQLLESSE

Compound | pIC50 [1] | pIC50 (Met) | pIC50 (KDR)
COc1cc2nccc(Oc3ccc(NC(=O)C4(C(=O)Nc5ccc(F)cc5)CC4)cc3)c2cc1-c1ccc(C)o1 [Compound 180, 1-N′-(4-fluorophenyl)-1-N-[4-[7-methoxy-6-(5-methylfuran-2-yl)quinolin-4-yl]oxyphenyl]cyclopropane-1,1-dicarboxamide] | ≥ 8.00 | 7.00 to 8.00 | 7.00 to 8.00
COc1cc2nccc(Oc3ccc(NC(=O)C4(C(=O)Nc5ccc(F)cc5)CC4)cc3)c2cc1-c1cnn(C)c1 [Compound 182, 1-N′-(4-fluorophenyl)-1-N-[4-[7-methoxy-6-(1-methylpyrazol-4-yl)quinolin-4-yl]oxyphenyl]cyclopropane-1,1-dicarboxamide] | ≥ 8.00 | 7.00 to 8.00 | ≥ 8.00
COc1cc2nccc(Oc3ccc(NC(=O)C4(C(=O)Nc5ccc(F)cc5)CC4)cc3)c2cc1-c1cnoc1 [Compound 183, 1-N′-(4-fluorophenyl)-1-N-[4-[7-methoxy-6-(1,2-oxazol-4-yl)quinolin-4-yl]oxyphenyl]cyclopropane-1,1-dicarboxamide] | ≥ 8.00 | 7.00 to 8.00 | 7.00 to 8.00
COc1cc2nccc(Oc3ccc(NC(=O)C4(C(=O)Nc5ccc(F)cc5)CC4)cc3)c2cc1-c1c(C)noc1C [Compound 184, 1-N-[4-[6-(3,5-dimethyl-1,2-oxazol-4-yl)-7-methoxyquinolin-4-yl]oxyphenyl]-1-N′-(4-fluorophenyl)cyclopropane-1,1-dicarboxamide] | ≥ 8.00 | 7.00 to 8.00 | < 6.52
COc1cc2nccc(Oc3ccc(NC(=O)C4(C(=O)Nc5ccc(F)cc5)CC4)cc3)c2cc1-c1ccn[nH]1 [Compound 185, 1-N′-(4-fluorophenyl)-1-N-[4-[7-methoxy-6-(1H-pyrazol-5-yl)quinolin-4-yl]oxyphenyl]cyclopropane-1,1-dicarboxamide] | ≥ 8.00 | 7.00 to 8.00 | ≥ 8.00
COc1cc2nccc(Oc3ccc(NC(=O)C4(C(=O)Nc5ccc(F)cc5)CC4)cc3)c2cc1-c1cn[nH]c1 [Compound 186, 1-N′-(4-fluorophenyl)-1-N-[4-[7-methoxy-6-(1H-pyrazol-4-yl)quinolin-4-yl]oxyphenyl]cyclopropane-1,1-dicarboxamide] | ≥ 8.00 | 7.00 to 8.00 | ≥ 8.00
COc1cc2nccc(Oc3ccc(NC(=O)C4(C(=O)Nc5ccc(F)cc5)CC4)cc3)c2cc1-c1ccc[nH]1 [Compound 188, 1-N′-(4-fluorophenyl)-1-N-[4-[7-methoxy-6-(1H-pyrrol-2-yl)quinolin-4-yl]oxyphenyl]cyclopropane-1,1-dicarboxamide] | ≥ 8.00 | 7.00 to 8.00 | 7.00 to 8.00
COc1cc2nccc(Oc3ccc(NC(=O)C4(C(=O)Nc5ccc(F)cc5)CC4)cc3)c2cc1C1(O)CN(C(=O)OC(C)(C)C)C1 [Compound 195, tert-butyl 3-[4-[4-[[1-[(4-fluorophenyl)carbamoyl]cyclopropanecarbonyl]amino]phenoxy]-7-methoxyquinolin-6-yl]-3-hydroxyazetidine-1-carboxylate] | ≥ 8.00 | 7.00 to 8.00 | 7.00 to 8.00
COc1cc2nccc(Oc3ccc(NC(=O)C4(C(=O)Nc5ccc(F)cc5)CC4)cc3)c2cc1-c1cccnc1 [Compound 201, 1-N′-(4-Fluorophenyl)-1-N-[4-(7-methoxy-6-pyridin-3-ylquinolin-4-yl)oxyphenyl]cyclopropane-1,1-dicarboxamide] | ≥ 8.00 | 7.00 to 8.00 | 7.00 to 8.00
COc1cc2nccc(Oc3ccc(NC(=O)C4(C(=O)Nc5ccc(F)cc5)CC4)cc3)c2cc1-c1ccncc1 [Compound 202, 1-N′-(4-Fluorophenyl)-1-N-[4-(7-methoxy-6-pyridin-4-ylquinolin-4-yl)oxyphenyl]cyclopropane-1,1-dicarboxamide] | ≥ 8.00 | 7.00 to 8.00 | 7.00 to 8.00
COc1cc2nccc(Oc3ccc(NC(=O)C4(C(=O)Nc5ccc(F)cc5)CC4)cc3)c2cc1-c1nnco1 [Compound 220, 1-N′-(4-Fluorophenyl)-1-N-[4-[7-methoxy-6-(1,3,4-oxadiazol-2-yl)quinolin-4-yl]oxyphenyl]cyclopropane-1,1-dicarboxamide] | ≥ 8.00 | 7.00 to 8.00 | ≥ 8.00

Now from value to compound:

pIC50 [1] | pIC50 (Met) | pIC50 (KDR) | Compound
≥ 8.00 | 7.00 to 8.00 | 7.00 to 8.00 | COc1cc2nccc(Oc3ccc(NC(=O)C4(C(=O)Nc5ccc(F)cc5)CC4)cc3)c2cc1C1CC1 [Compound 187, 1-N-[4-(6-cyclopropyl-7-methoxyquinolin-4-yl)oxyphenyl]-1-N′-(4-fluorophenyl)cyclopropane-1,1-dicarboxamide]
≥ 8.00 | 7.00 to 8.00 | 7.00 to 8.00 | COc1cc2nccc(Oc3ccc(NC(=O)C4(C(=O)Nc5ccc(F)cc5)CC4)cc3)c2cc1C1(O)COC1 [Compound 196, 1-N′-(4-fluorophenyl)-1-N-[4-[6-(3-hydroxyoxetan-3-yl)-7-methoxyquinolin-4-yl]oxyphenyl]cyclopropane-1,1-dicarboxamide]
≥ 8.00 | 6.52 to 7.00 | < 6.52 | COc1cc2nccc(Oc3ccc(NC(=O)C4(C(=O)Nc5ccc(F)cc5)CC4)cc3)c2cc1C1(O)CNC1 [Compound 197, 1-N′-(4-fluorophenyl)-1-N-[4-[6-(3-hydroxyazetidin-3-yl)-7-methoxyquinolin-4-yl]oxyphenyl]cyclopropane-1,1-dicarboxamide]
≥ 8.00 | 7.00 to 8.00 | 7.00 to 8.00 | COc1cc2nccc(Oc3ccc(NC(=O)C4(C(=O)Nc5ccc(F)cc5)CC4)cc3)c2cc1N1CCC1 [Compound 198, 1-N-[4-[6-(azetidin-1-yl)-7-methoxyquinolin-4-yl]oxyphenyl]-1-N′-(4-fluorophenyl)cyclopropane-1,1-dicarboxamide]
≥ 8.00 | ≥ 8.00 | ≥ 8.00 | COc1cc2nccc(Oc3ccc(NC(=O)C4(C(=O)Nc5ccc(F)cc5)CC4)cc3)c2cc1N1CC(O)C1 [Compound 199, 1-N′-(4-fluorophenyl)-1-N-[4-[6-(3-hydroxyazetidin-1-yl)-7-methoxyquinolin-4-yl]oxyphenyl]cyclopropane-1,1-dicarboxamide]
≥ 8.00 | 7.00 to 8.00 | 7.00 to 8.00 | COc1cc2nccc(Oc3ccc(NC(=O)C4(C(=O)Nc5ccc(F)cc5)CC4)cc3)c2cc1N1CC(F)(F)C1 [Compound 200, 1-N-[4-[6-(3,3-difluoroazetidin-1-yl)-7-methoxyquinolin-4-yl]oxyphenyl]-1-N′-(4-fluorophenyl)cyclopropane-1,1-dicarboxamide]
≥ 8.00 | ≥ 8.00 | ≥ 8.00 | COc1cc2nccc(Oc3ccc(NC(=O)C4(C(=O)Nc5ccc(F)cc5)CC4)cc3)c2cc1S(N)(=O)=O [Compound 206, 1-N′-(4-Fluorophenyl)-1-N-[4-(7-methoxy-6-sulfamoylquinolin-4-yl)oxyphenyl]cyclopropane-1,1-dicarboxamide]
≥ 8.00 | 7.00 to 8.00 | ≥ 8.00 | COc1cc2nccc(Oc3ccc(NC(=O)C4(C(=O)Nc5ccc(F)cc5)CC4)cc3)c2cc1S(C)(=O)=O [Compound 210, 1-N′-(4-Fluorophenyl)-1-N-[4-(7-methoxy-6-methylsulfonylquinolin-4-yl)oxyphenyl]cyclopropane-1,1-dicarboxamide]
